biological target: CDK7 (Homo sapiens (Human), UniProt P50613); assay: Inhibition of kinase activity, CDK7; type: biochemical; conditions: co-factors cyclin H and MNAT1
Experimental: Compounds of the invention were assayed for activity against a variety of different kinases. Exemplary results are presented as calculated IC50 values (Table A1 & A2). In Table A1 and A2 “A” represents a calculated IC50 value of less than 100 nM; “B” represents a calculated IC50 value of greater than or equal to 100 nM and less than 1 μM; and “C” represents a calculated IC50 value of 1 μM or greater. The co-factors used for each kinase in the assays were as follows: CDK7: cyclin H and MNAT1; CDK2: cyclin A; CDK9: cyclin K.

CDK7, sequence (P50613 whole entry): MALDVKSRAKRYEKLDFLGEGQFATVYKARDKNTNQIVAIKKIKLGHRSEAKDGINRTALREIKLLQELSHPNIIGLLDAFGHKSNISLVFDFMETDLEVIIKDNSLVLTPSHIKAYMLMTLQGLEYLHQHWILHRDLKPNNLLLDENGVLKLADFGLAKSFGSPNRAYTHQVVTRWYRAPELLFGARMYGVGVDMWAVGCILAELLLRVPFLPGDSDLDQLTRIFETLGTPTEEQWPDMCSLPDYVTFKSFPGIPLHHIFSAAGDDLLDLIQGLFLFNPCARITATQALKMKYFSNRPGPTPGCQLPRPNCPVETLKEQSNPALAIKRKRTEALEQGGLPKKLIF
CDK7, sequence (P51946 whole entry partner): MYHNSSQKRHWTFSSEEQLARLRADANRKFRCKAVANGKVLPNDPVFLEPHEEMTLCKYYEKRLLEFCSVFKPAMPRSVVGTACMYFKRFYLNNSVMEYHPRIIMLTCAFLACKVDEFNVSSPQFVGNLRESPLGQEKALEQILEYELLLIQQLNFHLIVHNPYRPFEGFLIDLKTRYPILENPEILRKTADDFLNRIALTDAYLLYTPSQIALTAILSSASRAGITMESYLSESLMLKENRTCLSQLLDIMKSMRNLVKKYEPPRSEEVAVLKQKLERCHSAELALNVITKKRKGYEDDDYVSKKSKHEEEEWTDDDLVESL
CDK7, sequence (P51948 whole entry partner): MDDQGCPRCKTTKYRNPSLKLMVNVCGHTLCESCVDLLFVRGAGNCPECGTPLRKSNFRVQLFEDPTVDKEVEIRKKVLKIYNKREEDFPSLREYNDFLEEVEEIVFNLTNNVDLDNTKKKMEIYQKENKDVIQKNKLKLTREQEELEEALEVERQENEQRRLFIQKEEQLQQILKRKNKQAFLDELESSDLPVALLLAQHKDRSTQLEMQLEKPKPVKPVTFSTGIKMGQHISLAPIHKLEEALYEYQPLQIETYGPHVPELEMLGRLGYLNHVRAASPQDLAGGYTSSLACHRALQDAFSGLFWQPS

SMILES	IC50 [nM]
C=CC(=O)Nc1ccc(Nc2n[nH]c3c2CN(C(=O)N[C@H](CN(C)C)c2ccccc2)C3(C)C)cc1 [Compound 111, (S)-3-((4-acrylamidophenyl)amino)-N-(2-(dimethylamino)-1-phenylethyl)-6,6-dimethyl-4,6-dihydropyrrolo[3,4-c]pyrazole-5(1H)-carboxamide]	100 to 1000
C=CC(=O)Nc1ccc(C(=O)N[C@H]2CCC[C@@H](Nc3n[nH]c4c3CN(C(=O)N[C@H](CN(C)C)c3ccccc3)C4(C)C)C2)cc1 [Compound 117, 3-(((1R,3S)-3-(4-acrylamidobenzamido)cyclohexyl)amino)-N-((S)-2-(dimethylamino)-1-phenylethyl)-6,6-dimethyl-4,6-dihydropyrrolo[3,4-c]pyrazole-5(1H)-carboxamide]	< 100
C=CC(=O)Nc1ccc(C(=O)N[C@@H]2CCC[C@@H](Nc3n[nH]c4c3CN(C(=O)N[C@H](CN(C)C)c3ccccc3)C4(C)C)C2)cc1 [Compound 118, 3-(((1R,3R)-3-(4-acrylamidobenzamido)cyclohexyl)amino)-N-((S)-2-(dimethylamino)-1-phenylethyl)-6,6-dimethyl-4,6-dihydropyrrolo[3,4-c]pyrazole-5(1H)-carboxamide]	< 100
C=CC(=O)Nc1ccc(C(=O)NC2CCC(Nc3n[nH]c4c3CN(C(=O)N[C@H](CN(C)C)c3ccccc3)C4(C)C)CC2)cc1 (stereo partly drawn) [Compound 119, (S)-3-((4-(4-acrylamidobenzamido)cyclohexyl)amino)-N-(2-(dimethylamino)-1-phenylethyl)-6,6-dimethyl-4,6-dihydropyrrolo[3,4-c]pyrazole-5(1H)-carboxamide]	< 100
C=CC(=O)Nc1cccc(C(=O)Nc2n[nH]c3c2CN(C(=O)N[C@H](CN(C)C)c2ccccc2)C3(C)C)c1 [Compound 120, (S)-3-(3-acrylamidobenzamido)-N-(2-(dimethylamino)-1-phenylethyl)-6,6-dimethyl-4,6-dihydropyrrolo[3,4-c]pyrazole-5(1H)-carboxamide]	< 100
C=CC(=O)N1CCC(C(=O)Nc2n[nH]c3c2CN(C(=O)N[C@H](CN(C)C)c2ccccc2)C3(C)C)CC1 [Compound 123, (S)-3-(1-acryloylpiperidine-4-carboxamido)-N-(2-(dimethylamino)-1-phenylethyl)-6,6-dimethyl-4,6-dihydropyrrolo[3,4-c]pyrazole-5(1H)-carboxamide]	< 100
C=CC(=O)Nc1ccc(C(=O)Nc2n[nH]c3c2CN(C(=O)N[C@H](CN(C)C)c2ccccc2)C3(C)C)cc1 [Compound 214, (S)-3-(4-acrylamidobenzamido)-N-(2-(dimethylamino)-1-phenylethyl)-6,6-dimethyl-4,6-dihydropyrrolo[3,4-c]pyrazole-5(1H)-carboxamide]	< 100
CCC(=O)Nc1ccc(C(=O)Nc2n[nH]c3c2CN(C(=O)N[C@H](CN(C)C)c2ccccc2)C3(C)C)cc1 [Compound 215, (S)-N-(2-(dimethylamino)-1-phenylethyl)-6,6-dimethyl-3-(4-propionamidobenzamido)-4,6-dihydropyrrolo[3,4-c]pyrazole-5(1H)-carboxamide]	< 100
C=CC(=O)Nc1ccc(C(=O)Nc2n[nH]c3c2CN(C(=O)N[C@H](CN(C)C)c2ccccc2)C3(C)C)c(OC)c1 [Compound 216, (S)-3-(4-acrylamido-2-methoxybenzamido)-N-(2-(dimethylamino)-1-phenylethyl)-6,6-dimethyl-4,6-dihydropyrrolo[3,4-c]pyrazole-5(1H)-carboxamide]	< 100
C=CC(=O)Nc1ccc(C(=O)Nc2n[nH]c3c2CN(C(=O)N[C@H](CN(C)C)c2ccccc2)C3(C)C)cc1OC [Compound 217, (S)-3-(4-acrylamido-3-methoxybenzamido)-N-(2-(dimethylamino)-1-phenylethyl)-6,6-dimethyl-4,6-dihydropyrrolo[3,4-c]pyrazole-5(1H)-carboxamide]	< 100
C=CC(=O)N[C@H]1CC[C@H](C(=O)Nc2n[nH]c3c2CN(C(=O)N[C@H](CN(C)C)c2ccccc2)C3(C)C)CC1 [Compound 222, 3-((1r,4S)-4-acrylamidocyclohexane-1-carboxamido)-N-((S)-2-(dimethylamino)-1-phenylethyl)-6,6-dimethyl-4,6-dihydropyrrolo[3,4-c]pyrazole-5(1H)-carboxamide]	< 100
C=CC(=O)N1CCC(Nc2n[nH]c3c2CN(C(=O)N[C@H](CN(C)C)c2ccccc2)C3(C)C)CC1 [Compound 231, (5)-3-((1-acryloylpiperidin-4-yl)amino)-N-(2-(dimethylamino)-1-phenylethyl)-6,6-dimethyl-4,6-dihydropyrrolo[3,4-c]pyrazole-5(1H)-carboxamide]	< 100
C=CC(=O)N1CCCC(Nc2n[nH]c3c2CN(C(=O)N[C@H](CN(C)C)c2ccccc2)C3(C)C)C1 (stereo partly drawn) [Compound 232, 3-((1-acryloylpiperidin-3-yl)amino)-N-((S)-2-(dimethylamino)-1-phenylethyl)-6,6-dimethyl-4,6-dihydropyrrolo[3,4-c]pyrazole-5(1H)-carboxamide]	< 100
C=CC(=O)Nc1ccc(C(=O)Nc2n[nH]c3c2CN(C(=O)N[C@H](CN(C)C)c2ccccc2)C32CC2)cc1 [Compound 233, (S)-3′-(4-acrylamidobenzamido)-N-(2-(dimethylamino)-1-phenylethyl)-1′,4′-dihydro-5′H-spiro[cyclopropane-1,6′-pyrrolo[3,4-c]pyrazole]-5′-carboxamide]	< 100
C=CC(=O)Nc1ccc(C(=O)Nc2n[nH]c3c2CN(C(=O)N[C@H](CN(C)C)c2ccccc2)[C@@H]3C(C)C)cc1 [Compound 234, (R)-3-(4-acrylamidobenzamido)-N-((S)-2-(dimethylamino)-1-phenylethyl)-6-isopropyl-4,6-dihydropyrrolo[3,4-c]pyrazole-5(1H)-carboxamide]	< 100
C=CC(=O)Nc1ccc(C(=O)Nc2n[nH]c3c2CN(C(=O)N[C@H](CN(C)C)c2ccccc2)[C@H]3C(C)C)cc1 [Compound 235, (S)-3-(4-acrylamidobenzamido)-N-((S)-2-(dimethylamino)-1-phenylethyl)-6-isopropyl-4,6-dihydropyrrolo[3,4-c]pyrazole-5(1H)-carboxamide]	≥ 1000

Further lines, results first:

IC50 [nM]	SMILES
< 100	C=CC(=O)Nc1cccc(C(=O)Nc2ccc(Nc3n[nH]c4c3CN(C(=O)N[C@H](CN(C)C)c3ccccc3)C4(C)C)cc2)c1 [Compound 103, (S)-3-((4-(3-acrylamidobenzamido)phenyl)amino)-N-(2-(dimethylamino)-1-phenylethyl)-6,6-dimethyl-4,6-dihydropyrrolo[3,4-c]pyrazole-5(1H)-carboxamide]
< 100	C=CC(=O)Nc1cccc(C(=O)Nc2cccc(Nc3n[nH]c4c3CN(C(=O)N[C@H](CN(C)C)c3ccccc3)C4(C)C)c2)c1 [Compound 105, (S)-3-((3-(3-acrylamidobenzamido)phenyl)amino)-N-(2-(dimethylamino)-1-phenylethyl)-6,6-dimethyl-4,6-dihydropyrrolo[3,4-c]pyrazole-5(1H)-carboxamide]
< 100	C=CC(=O)Nc1ccc(C(=O)Nc2cccc(Nc3n[nH]c4c3CN(C(=O)NC(C)CN(C)C)C4(C)C)c2)cc1 (stereo not shown) [Compound 108, 3-((3-(4-acrylamidobenzamido)phenyl)amino)-N-(1-(dimethylamino)propan-2-yl)-6,6-dimethyl-4,6-dihydropyrrolo[3,4-c]pyrazole-5(1H)-carboxamide]
< 100	CN(C)C/C=C/C(=O)Nc1ccc(C(=O)Nc2cccc(Nc3n[nH]c4c3CN(C(=O)N[C@H](CO)c3ccccc3)C4(C)C)c2)cc1 [Compound 109, (S,E)-3-((3-(4-(4-(dimethylamino)but-2-enamido)benzamido)phenyl)amino)-N-(2-hydroxy-1-phenylethyl)-6,6-dimethyl-4,6-dihydropyrrolo[3,4-c]pyrazole-5(1H)-carboxamide]
< 100	C=CC(=O)Nc1cccc(Nc2n[nH]c3c2CN(C(=O)N[C@H](CN(C)C)c2ccccc2)C3(C)C)c1 [Compound 110, (S)-3-((3-acrylamidophenyl)amino)-N-(2-(dimethylamino)-1-phenylethyl)-6,6-dimethyl-4,6-dihydropyrrolo[3,4-c]pyrazole-5(1H)-carboxamide]
< 100	C=CC(=O)N1CCC[C@@H](C(=O)Nc2n[nH]c3c2CN(C(=O)N[C@H](CN(C)C)c2ccccc2)C3(C)C)C1 [Compound 113, 3-((R)-1-acryloylpiperidine-3-carboxamido)-N-((S)-2-(dimethylamino)-1-phenylethyl)-6,6-dimethyl-4,6-dihydropyrrolo[3,4-c]pyrazole-5(1H)-carboxamide]
< 100	C=CC(=O)N1CCC[C@H](C(=O)Nc2n[nH]c3c2CN(C(=O)N[C@H](CN(C)C)c2ccccc2)C3(C)C)C1 [Compound 114, 3-((S)-1-acryloylpiperidine-3-carboxamido)-N-((S)-2-(dimethylamino)-1-phenylethyl)-6,6-dimethyl-4,6-dihydropyrrolo[3,4-c]pyrazole-5(1H)-carboxamide]
< 100	C=CC(=O)Nc1ccc(C(=O)N2CCCC(Nc3n[nH]c4c3CN(C(=O)N[C@H](CN(C)C)c3ccccc3)C4(C)C)C2)cc1 (stereo partly drawn) [Compound 115, 3-((1-(4-acrylamidobenzoyl)piperidin-3-yl)amino)-N-((S)-2-(dimethylamino)-1-phenylethyl)-6,6-dimethyl-4,6-dihydropyrrolo[3,4-c]pyrazole-5(1H)-carboxamide]
< 100	C=CC(=O)Nc1ccc(C(=O)N2CCC(Nc3n[nH]c4c3CN(C(=O)N[C@H](CN(C)C)c3ccccc3)C4(C)C)CC2)cc1 [Compound 116, (S)-3-((1-(4-acrylamidobenzoyl)piperidin-4-yl)amino)-N-(2-(dimethylamino)-1-phenylethyl)-6,6-dimethyl-4,6-dihydropyrrolo[3,4-c]pyrazole-5(1H)-carboxamide]
